US11345666B2, “Phenyl and pyridinyl substituted imidazoles as modulators of RORγT” (Janssen Pharmaceutica NV, priority 2018, dated 2022)

Legend:
[1] = biological target: human RORγt ligand binding domain (RORγt LBD) (Homo sapiens (Human), UniProt P51449); assay: RORγt ThermoFluor assay
Method in brief: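 Thermal shift of His-tagged human RORγt LBD (0.065 mg/mL) with 60 μM 1,8-ANS in 100 mM Hepes pH 7.0, 10 mM NaCl, 2.5 mM GSH, 0.002% Tween-20, heated at 1° C./min. Compounds in 1:2 series from a 10 mM DMSO stock; KD estimated from ΔTm using protein unfolding thermodynamics.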

full-length human RORγt = full-length human RORγt (Homo sapiens (Human), UniProt P51449); assay: RORγt (full-length human) reporter assay, conditions A or B; format: cell-based; conditions: for IC50: HEK293T cells, read-out: RORγt (FL) Reporter Assay A or B, IC50; for inhibition at 6 µM: read-out: RORγt (FL) Reporter Assay A or B, % inhibition @ 6 μM, 6 μM compound concentration; for inhibition at 2 µM: 2 μM compound concentration (**); for inhibition at 3 µM: 3 μM compound concentration (*)
Method in brief: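 HEK293T cells transiently co-transfected (PEI) with GAL4-DBD–RORγt, GAL4-firefly luciferase and CMV-Renilla reporters; condition A 35,000 cells/well, 170.5 ng DNA/well; condition B 8750 cells/well, 42.6 ng DNA/well.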

[2] = test system: Th17-dependent learned helplessness; conditions: mice; cited from earlier work
obese diabetic mice = conditions: cited from earlier work
[3] = read-out: RORγt (FL) Reporter Assay A or B, % inhibition

human RORγt ligand binding domain (RORγt LBD), sequence (P51449 other isoform, or with tags, fused parts or gaps): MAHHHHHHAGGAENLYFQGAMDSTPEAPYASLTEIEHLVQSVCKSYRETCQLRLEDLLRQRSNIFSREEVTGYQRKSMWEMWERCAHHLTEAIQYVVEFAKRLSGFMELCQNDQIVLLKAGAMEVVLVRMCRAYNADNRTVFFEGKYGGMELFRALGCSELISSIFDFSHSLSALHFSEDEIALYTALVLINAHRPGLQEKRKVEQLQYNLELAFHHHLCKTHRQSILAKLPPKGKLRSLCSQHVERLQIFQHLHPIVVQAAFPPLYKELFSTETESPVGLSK
full-length human RORγt, sequence (P51449 other isoform, or with tags, fused parts or gaps): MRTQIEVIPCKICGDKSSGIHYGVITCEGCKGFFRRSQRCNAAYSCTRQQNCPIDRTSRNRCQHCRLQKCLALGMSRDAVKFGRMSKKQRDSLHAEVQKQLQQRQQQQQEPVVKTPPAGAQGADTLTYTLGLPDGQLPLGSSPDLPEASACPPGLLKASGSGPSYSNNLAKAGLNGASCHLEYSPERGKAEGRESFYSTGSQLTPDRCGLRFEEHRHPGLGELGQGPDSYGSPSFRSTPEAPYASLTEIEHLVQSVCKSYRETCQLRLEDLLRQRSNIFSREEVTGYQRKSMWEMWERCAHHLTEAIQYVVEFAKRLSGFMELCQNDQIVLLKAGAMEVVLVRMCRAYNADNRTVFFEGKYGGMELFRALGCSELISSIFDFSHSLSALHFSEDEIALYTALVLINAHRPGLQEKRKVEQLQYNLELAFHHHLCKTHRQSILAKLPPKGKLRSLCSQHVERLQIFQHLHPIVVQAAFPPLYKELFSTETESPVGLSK

Row | Structure (SMILES) | Kd [1] [nM] | IC50 (full-length human RORγt) [nM] | inhibition at 6 µM (full-length human RORγt) [%] | other results
1 | CCc1nc(C(=O)NC[C@H]2CC[C@H](S(C)(=O)=O)CC2)c(C#N)n1-c1ncc(CCC(F)(F)F)cc1OC [Example 119, 5-Cyano-2-ethyl-1-(3-methoxy-5-(3,3,3-trifluoropropyl)pyridin-2-yl)-N-(((1r,4r)-4-(methylsulfonyl)cyclohexyl)methyl)-1H-imidazole-4-carboxamide] | 190 | 720 | 96 | –
2 | CCc1nc(C(=O)NC[C@]2(O)CC[C@@H](S(C)(=O)=O)CC2)c(C#N)n1-c1ncc(CCC(F)(F)F)cc1OC [Example 120, 5-Cyano-2-ethyl-N-(((1s,4s)-1-hydroxy-4-(methylsulfonyl)cyclohexyl)methyl)-1-(3-methoxy-5-(3,3,3-trifluoropropyl)pyridin-2-yl)-1H-imidazole-4-carboxamide] | 830 | 1400 | 57 | –
3 | CCc1nc(C(=O)NC[C@]2(C#N)CC[C@@H](S(C)(=O)=O)CC2)c(C#N)n1-c1ncc(CCC(F)(F)F)cc1OC [Example 121, 5-Cyano-N-(((1s*,4s*)-1-cyano-4-(methylsulfonyl)cyclohexyl)methyl)-2-ethyl-1-(3-methoxy-5-(3,3,3-trifluoropropyl)pyridin-2-yl)-1H-imidazole-4-carboxamide] | 300 | 1700 | 76 | –
4 | CCc1nc(C(=O)NC[C@H]2CC[C@H](S(C)(=O)=O)CC2)c(C#N)n1-c1ncc(CC(C)(C)C(F)(F)F)cc1OC [Example 122, 5-Cyano-2-ethyl-1-(3-methoxy-5-(3,3,3-trifluoro-2,2-dimethylpropyl)pyridin-2-yl)-N-(((1r,4r)-4-(methylsulfonyl)cyclohexyl)methyl)-1H-imidazole-4-carboxamide] | 12 | 48 | – | inhibition at 2 µM (full-length human RORγt; [3]): 101%
5 | CCc1nc(C(=O)NC[C@]2(O)CC[C@@H](S(C)(=O)=O)CC2)c(C#N)n1-c1ncc(CC(C)(C)C(F)(F)F)cc1OC [Example 123, 5-Cyano-2-ethyl-N-(((1s,4s)-1-hydroxy-4-(methylsulfonyl)cyclohexyl)methyl)-1-(3-methoxy-5-(3,3,3-trifluoro-2,2-dimethylpropyl)pyridin-2-yl)-1H-imidazole-4-carboxamide] | 31 | 240 | 102 | –
6 | CCc1nc(C(=O)NC[C@]2(C#N)CC[C@@H](S(C)(=O)=O)CC2)c(C#N)n1-c1ncc(CC(C)(C)C(F)(F)F)cc1OC [Example 124, 5-Cyano-N-(((1s*,4s*)-1-cyano-4-(methylsulfonyl)cyclohexyl)methyl)-2-ethyl-1-(3-methoxy-5-(3,3,3-trifluoro-2,2-dimethylpropyl)pyridin-2-yl)-1H-imidazole-4-carboxamide] | 37 | 84 | 105 | –
7 | CCc1nc(C(=O)NC[C@H]2CC[C@H](S(C)(=O)=O)CC2)c(Cl)n1-c1ncc(CC(C)(C)C(F)(F)F)cc1OC [Example 125, 5-Chloro-2-ethyl-1-(3-methoxy-5-(3,3,3-trifluoro-2,2-dimethylpropyl)pyridin-2-yl)-N-(((1r,4r)-4-(methylsulfonyl)cyclohexyl)methyl)-1H-imidazole-4-carboxamide] | 1.8 | 11 | – | inhibition at 2 µM (full-length human RORγt; [3]): 99%
8 | CCc1nc(C(=O)NC[C@H]2CC[C@H](S(C)(=O)=O)CC2)c(C)n1-c1ncc(CC(C)(C)C(F)(F)F)cc1OC [Example 126, 2-Ethyl-1-(3-methoxy-5-(3,3,3-trifluoro-2,2-dimethylpropyl)pyridin-2-yl)-5-methyl-N-(((1r,4r)-4-(methylsulfonyl)cyclohexyl)methyl)-1H-imidazole-4-carboxamide] | 8.6 | 76 | 100 | –
9 | CCc1nc(C(=O)NC[C@]2(O)CC[C@@H](S(C)(=O)=O)CC2)c(C)n1-c1ncc(CC(C)(C)C(F)(F)F)cc1OC [Example 127, 2-Ethyl-N-(((1s,4s)-1-hydroxy-4-(methylsulfonyl)cyclohexyl)methyl)-1-(3-methoxy-5-(3,3,3-trifluoro-2,2-dimethylpropyl)pyridin-2-yl)-5-methyl-1H-imidazole-4-carboxamide] | 21 | 140 | 98 | –
10 | CCc1nc(C(=O)NC[C@]2(C#N)CC[C@@H](S(C)(=O)=O)CC2)c(C)n1-c1ncc(CC(C)(C)C(F)(F)F)cc1OC [Example 128, N-(((1s*,4s*)-1-Cyano-4-(methylsulfonyl)cyclohexyl)methyl)-2-ethyl-1-(3-methoxy-5-(3,3,3-trifluoro-2,2-dimethylpropyl)pyridin-2-yl)-5-methyl-1H-imidazole-4-carboxamide] | 37 | 310 | 105 | –
11 | COc1cc(CC(C)(C)C(F)(F)F)ccc1-n1cc(C(=O)NC[C@H]2CC[C@H](S(C)(=O)=O)CC2)nc1C [Example 129, 1-(2-Methoxy-4-(3,3,3-trifluoro-2,2-dimethylpropyl)phenyl)-2-methyl-N-(((1r,4r)-4-(methylsulfonyl)cyclohexyl)methyl)-1H-imidazole-4-carboxamide] | 45 | 130 | – | inhibition at 0.22 µM (full-length human RORγt; 0.22 μM compound concentration (******), read-out: RORγt (FL) Reporter Assay A or B, % inhibition): 47%
12 | COc1cc(CC(C)(C)C(F)(F)F)ccc1-n1cc(C(=O)NC[C@]2(O)CC[C@@H](S(C)(=O)=O)CC2)nc1C [Example 130, N-(((1s,4s)-1-hydroxy-4-(methylsulfonyl)cyclohexyl)methyl)-1-(2-methoxy-4-(3,3,3-trifluoro-2,2-dimethylpropyl)phenyl)-2-methyl-1H-imidazole-4-carboxamide] | 65 | 540 | – | inhibition at 2 µM (full-length human RORγt; [3]): 73%
13 | Cc1nc(C(=O)NC[C@H]2CC[C@H](S(C)(=O)=O)CC2)cn1-c1ccc(CC(C)(C)C(F)(F)F)cc1OC(F)F [Example 131, 1-(2-(Difluoromethoxy)-4-(3,3,3-trifluoro-2,2-dimethylpropyl)phenyl)-2-methyl-N-(((1r,4r)-4-(methylsulfonyl)cyclohexyl)methyl)-1H-imidazole-4-carboxamide] | 97 | 470 | – | inhibition at 3 µM (full-length human RORγt; [3]): 73%
14 | Cc1nc(C(=O)NC[C@]2(O)CC[C@@H](S(C)(=O)=O)CC2)cn1-c1ccc(CC(C)(C)C(F)(F)F)cc1OC(F)F [Example 132, 1-(2-(Difluoromethoxy)-4-(3,3,3-trifluoro-2,2-dimethylpropyl)phenyl)-N-(((1s,4s)-1-hydroxy-4-(methylsulfonyl)cyclohexyl)methyl)-2-methyl-1H-imidazole-4-carboxamide] | 340 | 800 | – | inhibition at 3 µM (full-length human RORγt; [3]): 87%
15 | Cc1nc(C(=O)NC[C@H]2CC[C@H](S(C)(=O)=O)CC2)c(Cl)n1-c1ncc(CC(C)(C)C(F)(F)F)cc1OC(F)F [Example 133, 5-Chloro-1-(3-(difluoromethoxy)-5-(3,3,3-trifluoro-2,2-dimethylpropyl)pyridin-2-yl)-2-methyl-N-(((1r,4r)-4-(methylsulfonyl)cyclohexyl)methyl)-1H-imidazole-4-carboxamide] | 9.5 | 37 | – | inhibition at 3 µM (full-length human RORγt; [3]): 72%
16 | CC(=O)Nc1nc(C)c(S(=O)(=O)Nc2ccc(C(O)(C(F)(F)F)C(F)(F)F)cc2)s1 [SR1001] | – | – | – | Th17-dependent learned helplessness [2]: reduced
17 | CC(=O)N1CCN(Cc2ccc(-c3ccc(C(O)(C(F)(F)F)C(F)(F)F)cc3)cc2)CC1 [SR1555] | – | – | – | body weight (obese diabetic mice): reduced; fat mass (obese diabetic mice): significant reduction; food intake (obese diabetic mice): modest reduction; insulin sensitivity (obese diabetic mice): improved
